Measurements as given in article PMC6470675, “Design and Synthesis of New Quinoxaline Derivatives as Anticancer Agents and Apoptotic Inducers” (Molecules, 2019).

Experiments:
VEGFR-2 [1] = target: T1, VEGFR-2 (Homo sapiens, UniProt P35968); conditions: cited from earlier work
T1 construct: purchased Bio Science Corporation (BPS), San Diego, CA, USA

[2] = system: HCT116 human colon carcinoma cell line; test: In vitro cell proliferation (MTT) assay, HCT116; type: cell-based; conditions: Homo sapiens, HCT-116; MTT, 72 h exposure
Method: (§1) The targeted compounds were tested for their in-vitro anti-cancer activity against three tumor cell lines (HCT116, Hep G2 and MCF-7). Doxorubicin was included in the experiments as a reference cytotoxic compound. Exponentially growing cells from different cancer cell lines were trypsinized, counted and seeded at the appropriate densities into 96-well microtiter plates. Cells then were incubated in a humidified atmosphere at 37 °C for 24 h. Then, cells were exposed to different concentrations of compounds for 72 h. Then the viability of treated cells was determined using MTT technique (described latter).
(§2) Three cancer cell lines including human colon carcinoma (HCT116), human breast adenocarcinoma (MCF-7) and human hepatocellular carcinoma (Hep G2), were purchased from American Type Cell Culture Collection (ATCC, Manassas, VA, USA) and grown on the appropriate growth medium Dulbecco’s modified Eagle’s medium (DMEM) or Roswell Park Memorial Institute medium (RPMI 1640) supplemented with […] of streptomycin, 100 units/mL of penicillin and 10% of heat-inactivated fetal bovine serum in a humidified, 5% (v/v) CO2 atmosphere at 37 °C [34]. Cytotoxicity assay by 3-[4,5-dimethylthiazole-2-yl]-2,5-diphenyltetrazolium bromide (MTT).
(§3) Exponentially growing cells from different cancer cell lines were trypsinized, counted and seeded at the appropriate densities (2000–1000 cells/0.33 cm^2 well) into 96-well microtiter plates. Cells then were incubated in a humidified atmosphere at 37 °C for 24 h. Then, cells were exposed to different concentrations of compounds (0.1, 10, 100, 1000 µM) for 72 h. Then the viability of treated cells was determined using MTT technique as follow. Media were removed; cells were incubated with 200 μL of 5% MTT solution/well (Sigma Aldrich, Darmstadt, Germany) and were allowed to metabolize the dye into a colored-insoluble formazan crystal for 2 h. The remaining MTT solution were discarded from the wells and the formazan crystals were dissolved in 200 µl/well acidified isopropanol for 30 min, covered with aluminum foil and with continuous shaking using a MaxQ 2000 plate shaker (Thermo Fisher Scientific Inc, Waltham, MA, USA) at room temperature. Absorbance were measured at 570 nm using a Stat Fax^R 4200 plate reader (Awareness Technology, Inc., Awareness Technology, FL, USA). The cell viability was expressed as percentage of control and the concentration that induces 50% of maximum inhibition of cell proliferation (IC50) were determined using Graph Pad Prism version 5 software (Graph Pad Software Inc, San Diego, CA, USA) (1,2).

[3] = system: Hep G2 human hepatocellular carcinoma cell line; test: In vitro cell proliferation (MTT) assay, Hep G2; type: cell-based; conditions: for IC50: Homo sapiens, HepG2, MTT, 72 h exposure
Method: as §1, §2, §3

[4] = system: MCF-7 human breast adenocarcinoma cell line; test: In vitro cell proliferation (MTT) assay, MCF-7; type: cell-based; conditions: Homo sapiens, MCF7; MTT, 72 h exposure
Method: as §1, §2, §3

VEGFR-2 [5] = target: T1, VEGFR-2; test: In vitro VEGFR-2 inhibition assay (Kinase-Glo Plus luminescence); type: biochemical; conditions: for inhibition at 10 µM: single concentration of 10 µM, read-out: % of VEGFR-2 Inhibition
Method: In an attempt to investigate the possible mechanism of action of the synthesized compounds based on structural similarity with sorafenib, all of them were tested for VEGFR-2 inhibitory activity at Bio Science Corporation (BPS, San Diego, CA, USA). The assay was performed using the Kinase-Glo Plus luminescence kinase assay kit (Promega, San Diego, CA, USA). It measures kinase activity by quantitating the amount of ATP remaining in solution following a kinase reaction. […].
The in-vitro enzyme inhibition determination for the synthesized compounds was carried out at Bio Science Corporation (BPS)-San Diego, CA, USA. The assay was performed using Kinase-Glo Plus luminescence kinase assay kit (Promega), where the kinase activity was measured by quantitating the amount of ATP remaining in solution following a kinase reaction. The luminescent signal from the assay is correlated with the amount of ATP present and is inversely correlated with the amount of kinase activity. Our compounds were diluted with 10% DMSO and 5 µL of the dilution was added to a 50 µL reaction so that the final concentration of DMSO is 1% in all of reactions. All of the enzymatic reactions were conducted at 30 °C for 40 min. The 50 µL reaction mixture contains 40 mM Tris, pH 7.4, 10 mM MgCl2, 0.1 mg/mL BSA, 1 mM DTT, 10 µM ATP, Kinase substrate and the enzyme. After the enzymatic reaction, 50 µL of Kinase-Glo Plus Luminescence kinase assay solution (Promega San Diego, CA, USA) was added to each reaction and incubate the plate for 5 min at room temperature. Luminescence signal was measured using a BioTek Synergy 2 microplate reader.
Kinase activity assays were performed in duplicate at each concentration. The luminescence data were analyzed using the computer software, Graphpad Prism. The difference between luminescence intensities in the absence of Kinase (Lut) and in the presence of Kinase (Luc) was defined as 100% activity (Lut − Luc). Using luminescence signal (Lu) in the presence of the compound, % activity was calculated as:% activity = {(Lut − Lu)(Lut − Luc)} × 100% where Lu = the luminescence intensity in the presence of the compound.

HCT116 cells [6] = test: Cell cycle analysis by flow cytometry; type: cell-based, human; conditions: 2.5 µM
Method: The effect of compound VIIIc on the normal cell cycle progression was characterized using flow cytometric analysis of the DNA ploidy in HCT116 cells Figure 3. […] The observed increase in pre-G cell population may imply DNA fragmentation and apoptosis as a potential mechanism for VIIIc-induced cancer cell death.
HCT116 cells at a density of 4 × 10^6 cell/T 75 flask were exposed to 1-(4-Chlorophenyl)-3-(4-((3-methylquinoxalin-2-yl)amino)phenyl)urea VIIIc at its IC50 concentration for 24 and 48 h. The cells then were collected by trypsinization, washed with phosphate buffered saline (PBS), and fixed in ice-cold absolute alcohol. Thereafter, cells were stained, using Cycle test ^TM Plus DNA Reagent Kit (BD Biosciences, San Jose, CA, USA), according to the manufacturer’s instructions. Cell cycle distribution was determined using a FACS Calibur flow cytometer (BD Biosciences).

HCT116 cells [7] = test: Annexin V-FITC/PI apoptosis determination; type: cell-based, human; conditions: IC50 (2.5 µM), 24 h and 48 h, compared to DMSO treated cells
Excerpt: For further investigation of the ability of compound VIIIc to induce apoptosis, an Annexin V (conjugated to FITC) apoptosis detection kit was employed. This assay detects phosphatidylserine (PS) expressed on the surface of apoptotic cells and fluoresces green after interacting with the labeled annexin V. During early apoptosis, membrane asymmetry is lost, and PS translocates from the cytoplasmic side of the membrane to the external leaflet. Propidium iodide (PI), the counterstain used in this assay, has the ability to cross only compromised membranes to intercalate into the DNA. Therefore, PI is used to detect the late stages of apoptosis by presence of red fluorescence.
Apoptosis was determined by staining cells with Annexin V–fluorescein isothiocyanate (FITC) and counterstaining with propidium iodide (PI) using the Annexin V–FITC/PI apoptosis detection kit (BD PharMingen, San Diego, CA, USA) according to the manufacturer’s instructions. Briefly, 4 × 10^6 cell/T 75 flask were exposed to compound VIIIc at its IC50 concentration for 24 and 48 h. The cells then were collected by trypsinization and 0.5 × 10^6 cells were washed twice with phosphate-buffered saline (PBS) and stained with 5 μL Annexin V–FITC and 5 μL PI in 1× binding buffer (BD PharMingen) for 15 min at room temperature in the dark. Analyses were performed using FACS Calibur flow cytometer (BD Biosciences).

[8] = system: three tumor cell lines (HCT116, Hep G2 and MCF-7); test: In vitro anti-cancer activity stated for the tested cell lines together; type: cell-based, human; conditions: HCT116, Hep G2 and MCF-7 together
Method: as §1, §2
Exponentially growing cells from different cancer cell lines were trypsinized, counted and seeded at the appropriate densities (2000–1000 cells/0.33 cm^2 well) into 96-well microtiter plates. Cells then were incubated in a humidified atmosphere at 37 °C for 24 h. Then, cells were exposed to different concentrations of compounds (0.1, 10, 100, 1000 µM) for 72 h. Then the viability of treated cells was determined using MTT technique as follow. Media were removed; cells were incubated with 200 μL of 5% MTT solution/well (Sigma Aldrich, Darmstadt, Germany) and were allowed to metabolize the dye into a colored-insoluble formazan crystal for 2 h. […] Absorbance were measured at 570 nm using a Stat Fax^R 4200 plate reader (Awareness Technology, Inc., Awareness Technology, FL, USA). […]

[9] = system: fibroblast-like fetal lung cell line (WI-38); test: In vitro MTT cytotoxicity assay on normal WI-38 cells
Method: Cell Line cells were obtained from American Type Culture Collection, cells were cultured using DMEM (Invitrogen/Life Technologies, Waltham, MA, USA) supplemented with 10% FBS (Hyclone, Waltham, MA, USA), 10 μg/mL of insulin (Sigma), and 1% penicillin-streptomycin. All of the other chemicals and reagents were from Sigma, or Invitrogen. Plate cells (cells density 1.2–1.8 × 10,000 cells/well) in a volume of 100 µL complete growth medium + 100 μL of the tested compound per well in a 96-well plate for 24 h before the MTT assay.

T1 sequence (P35968 20-1356): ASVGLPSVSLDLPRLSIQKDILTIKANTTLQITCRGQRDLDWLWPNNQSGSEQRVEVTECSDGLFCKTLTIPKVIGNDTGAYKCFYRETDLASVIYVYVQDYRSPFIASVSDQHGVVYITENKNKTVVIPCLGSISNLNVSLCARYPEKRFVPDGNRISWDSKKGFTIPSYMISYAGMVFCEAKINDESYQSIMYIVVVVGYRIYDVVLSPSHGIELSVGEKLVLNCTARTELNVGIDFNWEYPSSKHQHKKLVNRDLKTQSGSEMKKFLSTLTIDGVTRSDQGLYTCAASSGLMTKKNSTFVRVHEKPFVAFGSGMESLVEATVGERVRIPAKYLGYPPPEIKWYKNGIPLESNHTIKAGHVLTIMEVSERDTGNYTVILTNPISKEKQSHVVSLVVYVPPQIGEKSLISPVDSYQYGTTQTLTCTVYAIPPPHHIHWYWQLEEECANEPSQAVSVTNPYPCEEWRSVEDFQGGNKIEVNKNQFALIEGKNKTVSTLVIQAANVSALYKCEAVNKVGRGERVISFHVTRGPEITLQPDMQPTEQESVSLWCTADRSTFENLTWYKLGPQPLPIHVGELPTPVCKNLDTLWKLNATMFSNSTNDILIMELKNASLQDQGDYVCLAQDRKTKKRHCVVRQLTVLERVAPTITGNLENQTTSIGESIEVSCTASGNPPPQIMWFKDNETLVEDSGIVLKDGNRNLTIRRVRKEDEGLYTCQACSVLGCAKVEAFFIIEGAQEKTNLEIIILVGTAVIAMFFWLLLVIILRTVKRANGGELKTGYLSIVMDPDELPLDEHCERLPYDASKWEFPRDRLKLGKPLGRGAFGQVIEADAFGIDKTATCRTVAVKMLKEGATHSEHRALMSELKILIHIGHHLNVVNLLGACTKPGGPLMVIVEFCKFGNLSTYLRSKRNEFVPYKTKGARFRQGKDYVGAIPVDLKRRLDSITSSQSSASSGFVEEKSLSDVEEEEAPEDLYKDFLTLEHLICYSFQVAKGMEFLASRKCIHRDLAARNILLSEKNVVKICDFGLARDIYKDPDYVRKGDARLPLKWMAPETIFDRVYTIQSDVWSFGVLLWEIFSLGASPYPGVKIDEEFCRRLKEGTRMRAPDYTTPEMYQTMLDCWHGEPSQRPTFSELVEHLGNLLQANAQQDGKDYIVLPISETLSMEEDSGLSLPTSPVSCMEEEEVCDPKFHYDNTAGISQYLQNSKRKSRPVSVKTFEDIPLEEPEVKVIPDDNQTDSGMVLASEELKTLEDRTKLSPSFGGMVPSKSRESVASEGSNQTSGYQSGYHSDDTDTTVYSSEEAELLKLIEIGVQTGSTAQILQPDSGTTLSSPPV

COc1ccc(Nc2nc3ccc(NC(=O)c4ccccc4C(=O)O)cc3[nH]c2=O)cc1 [Compound 4]
inhibition percentage against VEGFR-2 (VEGFR-2 [1]): 69%

Cc1nc2ccccc2nc1Nc1ccc(NC(=O)Nc2ccc(Cl)cc2)cc1 [Compound VIIIc, 1-(4-Chlorophenyl)-3-(4-((3-methylquinoxalin-2-yl)amino)phenyl)urea]
IC50 [2]: 2.5 µM | anti-cancer activity against Hep G2 cell line (in words) [3]: moderate activity | IC50 [3]: 22 µM | IC50 [4]: 9 µM | activity against VEGFR-2 (in words) (VEGFR-2 [5]; 10 µM): weak activity | inhibition at 10 µM (VEGFR-2 [5]): 7% | effect on cell cycle profile (in words) (HCT116 cells [6]; 24 h): increase in G1 phase | effect on cell cycle profile (in words) (HCT116 cells [6]; 48 h): cell cycle arrest at G2/M phase boundary | annexin-V positive cells (in words) (HCT116 cells [7]): increased the percentage of annexin-V positive cells | activity against the tested cell lines (in words) [8]: promising activity | selectivity as anti-cancer agent (in words), from WI-38 IC50 [9]: moderate selectivity | IC50 ([9]; read-out: IC50 on WI-38 cell line, MTT, normal cell line): 97.2 ± 5.66 µM

O=C(Nc1ccc(Cl)cc1)c1cccc(Nc2nc3ccccc3nc2Cl)c1 [Compound XVb, N-(4-Chlorophenyl)-3-((3-chloroquinoxalin-2-yl)amino)benzamide]
IC50 [2]: 15.5 µM | IC50 [3]: 27.5 µM | IC50 [4]: 21.4 µM | inhibition at 10 µM (VEGFR-2 [5]): 7% | activity against the tested cell lines (in words) [8]: moderate to weak activities | melting point: 283 to 285 °C

Cc1nc2ccccc2nc1Nc1cccc(C(=O)Nc2ccc(Cl)cc2)c1 [VIb, N-(4-Chlorophenyl)-3-((3-methylquinoxalin-2-yl)amino)benzamide]
IC50 [2]: 537 µM | IC50 [3]: 955 µM | IC50 [4]: 692 µM | activity against the tested cell lines (in words) [8]: no significant inhibitory activity | melting point: 240 to 241 °C

O=C(Nc1ccccc1)Nc1ccc(Nc2nc3ccccc3nc2Cl)cc1 [XVIIb, 1-(4-((3-Chloroquinoxalin-2-yl)amino)phenyl)-3-phenylurea]
IC50 [2]: 170 µM | IC50 [3]: 513 µM | IC50 [4]: 148 µM | inhibition at 10 µM (VEGFR-2 [5]): 10% | melting point: 280 to 281 °C

O=C(Nc1ccc(Cl)cc1)Nc1ccc(Nc2nc3ccccc3nc2Cl)cc1 [XVIIc, 1-(4-Chlorophenyl)-3-(4-((3-chloroquinoxalin-2-yl)amino)phenyl)urea]
IC50 [2]: 257 µM | IC50 [3]: 616 µM | IC50 [4]: 692 µM | inhibition at 10 µM (VEGFR-2 [5]): 6% | melting point: > 300 °C

Cc1cccc(NC(=O)Nc2ccc(Nc3nc4ccccc4nc3Cl)cc2)c1 [XVIId, 1-(4-((3-Chloroquinoxalin-2-yl)amino)phenyl)-3-(m-tolyl) urea]
IC50 [2]: 190 µM | IC50 [3]: 513 µM | IC50 [4]: 64.5 µM | inhibition at 10 µM (VEGFR-2 [5]): 5% | melting point: > 300 °C

O=C(Nc1ccc(Nc2nc3ccccc3nc2Cl)cc1)c1ccccc1 [XVIa, N-(4-((3-Chloroquinoxalin-2-yl)amino)phenyl)benzamide]
IC50 [2]: 347 µM | IC50 [3]: 513 µM | IC50 [4]: 324 µM | inhibition at 10 µM (VEGFR-2 [5]): 8% | melting point: 270 to 273 °C

O=C(Nc1ccc(Nc2nc3ccccc3nc2Cl)cc1)c1ccc(Cl)cc1 [XVIb, 4-Chloro-N-(4-((3-chloroquinoxalin-2-yl)amino)phenyl) benzamide]
IC50 [2]: > 1000 µM | IC50 [3]: > 1000 µM | IC50 [4]: > 1000 µM | inhibition at 10 µM (VEGFR-2 [5]): 4% | melting point: 233 to 235 °C

COc1ccc(C(=O)Nc2ccc(Nc3nc4ccccc4nc3Cl)cc2)cc1 [XVIc, N-(4-((3-Chloroquinoxalin-2-yl)amino)phenyl)-4-methoxybenzamide]
IC50 [2]: > 1000 µM | IC50 [3]: > 1000 µM | IC50 [4]: > 1000 µM | inhibition at 10 µM (VEGFR-2 [5]): 4% | melting point: 235 to 236 °C
